A word on the IC50: it is the midpoint of a concentration-inhibition curve. A lower IC50 goes with greater potency in that assay.

The target in this assay is Mouse ERK2 protein (Mus musculus (Mouse), UniProt P63085). Kind of assay: Coupled MEK1/ERK2 IMAP assay or Active ERK2 IMAP assay. It is filed as biochemical. Here is the method: 14 μl of kinase buffer (10 mM Tris.HCl pH 7.2, 10 mM MgCl2, 0.01% Tween-20, 1 mM DTT) containing 0.4 ng unphosphorylated Mouse ERK2 protein is added to each well of a black 384-well assay plate. […] DMSO concentration during initial incubation is 6.7%. […] DMSO concentration during ERK activation was 4%. After one hour, reactions are terminated by addition of 60 μl IMAP detections beads in binding buffer (Molecular Devices). Binding is allowed to equilibrate for 30 minutes before reading the plate on an LJL Analyst Fluorescence Polarization plate reader.
Sequence of Mouse ERK2 protein (P63085 whole entry): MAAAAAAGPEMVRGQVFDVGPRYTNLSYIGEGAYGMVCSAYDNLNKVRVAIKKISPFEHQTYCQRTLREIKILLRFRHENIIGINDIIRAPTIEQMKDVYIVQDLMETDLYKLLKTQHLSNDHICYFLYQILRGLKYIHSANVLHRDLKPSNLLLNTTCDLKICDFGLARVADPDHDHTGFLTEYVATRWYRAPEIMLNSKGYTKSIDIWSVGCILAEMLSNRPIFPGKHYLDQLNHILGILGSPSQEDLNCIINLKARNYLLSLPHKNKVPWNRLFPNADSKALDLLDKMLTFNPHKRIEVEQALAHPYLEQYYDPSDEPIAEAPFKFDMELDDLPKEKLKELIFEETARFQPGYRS
Activated ERK2 activity was also determined in the IMAP assay format using the procedure outlined above. […] Reactions proceeded for 30 minutes before termination by addition of […] IMAP detection beads in binding buffer. Plates were read as above after 30 minute binding equilibration.

The mark [1] stands for this setting: Table 1, class symbols, 30 μM ATP.

The compound `O=C(NC1CN(Cc2c(F)cccc2F)CCC1F)N1CCc2[nH]nc(-c3ccc4nccn4c3)c2C1` (mixture of isomers) [Compound 156, N-[cis/trans-1-[(2,6-difluorophenyl)methyl]-4-fluoro-3-piperidinyl]-1,4,6,7-tetrahydro-3-imidazo[1,2-a]pyridin-6-yl-5H-pyrazolo[4,3-c]pyridine-5-carboxamide] registered a half-inhibitory concentration (IC50) under setting [1] of 0.101 to 1 µM.

With `Cc1cc(-c2n[nH]c3c2CN(C(=O)NC2CN(Cc4c(F)cccc4F)CCC2F)CC3)ccn1` (mixture of isomers) [Compound 158, N-[cis/trans-1-[(2,6-difluorophenyl)methyl]-4-fluoro-3-piperidinyl]-1,4,6,7-tetrahydro-3-(2-methyl-4-pyridinyl)-5H-pyrazolo[4,3-c]pyridine-5-carboxamide], the IC50 under setting [1] is 0.101 to 1 µM.

Compound `CC1(C(=O)N[C@H]2CNC[C@@H]2c2ccccc2)CCc2[nH]nc(-c3ccncc3)c2C1` (mixture of isomers) [Compound 4, 4,5,6,7-tetrahydro-5-methyl-N-(trans-4-phenyl-3-pyrrolidinyl)-3-(4-pyridinyl)-1H-indazole-5-carboxamide (mixture of isomers)] had an IC50 under setting [1] of 0.101 to 1 µM.

For `O=C(N[C@H]1CNC[C@@H]1c1ccccc1)[C@@H]1CCc2[nH]nc(-c3ccncc3)c2C1` (racemic) [Compound 12, 4,5,6,7-tetrahydro-N-(trans-4-phenyl-3-pyrrolidinyl)-3-(4-pyridinyl)-1H-indazole-5(R)-carboxamide], the concentration for half-maximal inhibition (IC50) under setting [1] was 0.101 to 1 µM. Same read-out and setting: under `O=C(N[C@H]1CNC[C@@H]1c1ccccc1)[C@H]1CCc2[nH]nc(-c3ccncc3)c2C1` (racemic) [Compound 13, 4,5,6,7-tetrahydro-N-(trans-4-phenyl-3-pyrrolidinyl)-3-(4-pyridinyl)-1H-indazole-5(S)-carboxamide] stands 0.021 to 0.1 µM. The compound `O=C(N[C@H]1CNC[C@@H]1c1ccccc1)N1CCc2[nH]nc(-c3ccncc3)c2C1` (racemic) [Compound 37, 1,4,6,7-tetrahydro-N-(trans-4-phenyl-3-pyrrolidinyl)-3-(4-pyridinyl)-5H-pyrazolo[4,3-c]pyridine-5-carboxamide] yielded an IC50 (Table 2, 30 μM ATP) of 0.00116 µM. Under setting [1], `O=C(N[C@H]1CNC[C@@H]1c1ccccc1)C1CCc2[nH]nc(-c3ccc4ncsc4c3)c2C1` (mixture of isomers) [Compound 43, 3-(6-benzothiazolyl)-4,5,6,7-tetrahydro-N-(trans-4-phenyl-3-pyrrolidinyl)-1H-indazole-5-carboxamide] yielded an IC50 of 1 to 100 µM. On the same count and under the same terms, under `O=C(N[C@H]1CNC[C@@H]1c1ccccc1)[C@H]1CCc2[nH]nc(-c3ccc4ncsc4c3)c2C1` (racemic) [Compound 44, 3-(6-benzothiazolyl)-4,5,6,7-tetrahydro-N-(trans-4-phenyl-3-pyrrolidinyl)-1H-indazole-5(S)-carboxamide] stands 1 to 100 µM; under `Cc1ccccc1[C@@H]1CN(C)C[C@H]1NC(=O)N1CCc2[nH]nc(-c3ccc(F)cc3)c2C1` (racemic) [Compound 141, 3-(4-fluorophenyl)-1,4,6,7-tetrahydro-N-[trans-1-methyl-4-(2-methylphenyl)-3-pyrrolidinyl]-5H-pyrazolo[4,3-c]pyridine-5-carboxamide], less than 0.02 µM; under `O=C(N[C@@H]1CCC[C@H]1c1ccccc1)N1CCc2[nH]nc(-c3ccncc3)c2C1` (racemic) [Compound 143, 1,4,6,7-tetrahydro-N-[trans-2-phenylcyclopentyl]-3-(4-pyridinyl)-5H-pyrazolo[4,3-c]pyridine-5-carboxamide], less than 0.02 µM. `Cc1ccccc1[C@@H]1CN(C)C[C@H]1NC(=O)N1CCc2[nH]nc(-c3ccc4c(c3)CCO4)c2C1` (racemic) [Compound 145, 3-(2,3-dihydro-5-benzofuranyl)-1,4,6,7-tetrahydro-N-[trans-1-methyl-4-(2-methylphenyl)-3-pyrrolidinyl]-5H-pyrazolo[4,3-c]pyridine-5-carboxamide]: the IC50 (Table 2, 30 μM ATP) turned out to be 0.00152 µM. The same measure, in the same setting: to `CCn1cc(-c2n[nH]c3c2CN(C(=O)NC2CN(C)CC2c2ccccc2C)CC3)cn1` (racemic) [Compound 147, 3-(1-ethyl-1H-pyrazoI-4-yl)-1,4,6,7-tetrahydro-N-ttrans-1-methyl-4-(2-methylphenyl)-3-pyrrolidinyl]-5H-pyrazolo[4,3-c]pyridine-5-carboxamide] belongs 0.0019 µM. Compound `CN1C[C@@H](NC(=O)N2CCc3[nH]nc(-c4ccncc4)c3C2)[C@H](c2ccccc2C(F)(F)F)C1` (racemic) [Compound 149, 1,4,6,7-tetrahydro-N-[trans-1-methyl-4-[2-(trifluoromethyl)phenyl]-3-pyrrolidinyl]-3-(4-pyridinyl)-5H-pyrazolo[4,3-c]pyridine-5-carboxamide] displayed a half-inhibitory concentration (IC50) under setting [1] of less than 0.02 µM. With `CN1C[C@@H](NC(=O)N2CCc3[nH]nc(-c4ccc(F)cc4)c3C2)[C@H](c2ccccc2C(F)(F)F)C1` (racemic) [Compound 151, 3-(4-fluorophenyl)-1,4,6,7-tetrahydro-N-[trans-1-methyl-4-[2-(trifluoromethyl)phenyl]-3-pyrrolidinyl]-5H-pyrazolo[4,3-c]pyridine-5-carboxamide], under setting [1], the concentration for half-maximal inhibition (IC50) was less than 0.02 µM. For `CN1C[C@@H](NC(=O)N2CCc3[nH]nc(-c4ccc5c(c4)CCO5)c3C2)[C@H](c2ccccc2C(F)(F)F)C1` (racemic) [Compound 153, 3-(2,3-dihydro-5-benzofuranyl)-1,4,6,7-tetrahydro-N-[trans-1-methyl-4-[2-(trifluoromethyl)phenyl]-3-pyrrolidinyl]-5H-pyrazolo[4,3-c]pyridine-5-carboxamide], the concentration for half-maximal inhibition (IC50) under setting [1] was less than 0.02 µM. Still for that read-out and setting: under `CCn1cc(-c2n[nH]c3c2CN(C(=O)N[C@@H]2CN(C)C[C@H]2c2ccccc2C(F)(F)F)CC3)cn1` (racemic) [Compound 155, 3-(1-ethyl-1H-pyrazol-4-yl)-1,4,6,7-tetrahydro-N-[trans1-methyl-4-[2-(trifluoromethyl)phenyl]-3-pyrrolidinyl]-5H-pyrazolo[4,3-c]pyridine-5-carboxamide] stands less than 0.02 µM. On the same count and under the same terms, to `Cc1ccc([C@@H]2CNC[C@H]2NC(=O)N2CCc3[nH]nc(-c4ccncc4)c3C2)cc1` (racemic) [Compound 157, 1,4,6,7-tetrahydro-N-[trans-4-(4-methylphenyl)-3-pyrrolidinyl]-3-(4-pyridinyl)-5H-pyrazolo[4,3-c]pyridine-5-carboxamide] belongs less than 0.02 µM; to `Cc1ccc(C2CN(C)CC2NC(=O)N2CCc3[nH]nc(-c4ccncc4)c3C2)cc1` (racemic) [Compound 159, 1,4,6,7-tetrahydro-N-[trans-1 methyl-4-(4-methylphenyl)-3-pyrrrolidinyl]-3-(4-pyridinyl)-5H-pyrazolo[4,3-c]pyridine-5-carboxamide], less than 0.02 µM; to `CCN1C[C@@H](NC(=O)N2CCc3[nH]nc(-c4ccncc4)c3C2)[C@H](c2ccc(C)cc2)C1` (racemic) [Compound 161, N-[trans-1-ethyl-4-(4-methylphenyl)-3-pyrrolidinyl]-1,4,6,7-tetrahydro-3-(4-pyridinyl)-5H-pyrazolo[4,3-c]pyridine-5-carboxamide], less than 0.02 µM. In turn, `CN1C[C@@H](NC(=O)N2CCc3[nH]nc(-c4ccncc4)c3C2)[C@H](c2ccccc2-c2ccccc2)C1` (racemic) [Compound 163, N-[trans-4-[1,1′-biphenyl]-2-yl-1-methyl-3-pyrrolidinyl]-1,4,6,7-tetrahydro-3-(4-pyridinyl)-5H-pyrazolo[4,3-C]pyridine-5-carboxamide] returned a half-inhibitory concentration (IC50) under setting [1] of less than 0.02 µM.

Source of the values: patent US9242981B2, “Fused pyrazole derivatives as novel ERK inhibitors” (Merck Sharp & Dohme Corp., priority 2010, dated 2016).
